Data: patent publication US12077503B2, “Substituted cyclic amides and their use as herbicides” (FMC CORPORATION, priority 2015, dated 2024)

Key:
Assay type in all cases: in vivo
[1] = tested on: ivy-leaved morning glory (Ipomoea hederacea); test: Test G Post-Emergence Protocol; conditions: Ipomoea, post-emergence, 312 h, read-out: Morningglory, Ivy-leaved damage rating; for pest or weed control at 15.625 g/ha: 15.625 g ai/ha, evaluated after 13 days (100=total damage to plant; 0=no damage to plant); for pest or weed control at 62.5 g/ha: 62.5 g ai/ha; for pest or weed control at 62.5 g/ha / pest or weed control at 250 g/ha: evaluated after 13 days, 100=total damage to plant, 0=no damage to plant; for pest or weed control at 250 g/ha: 250 g ai/ha
Procedure, shortened: (§1)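 Damage was rated 13 days after treatment from 0 (none) to 100 (plant killed). Compound was applied as a spray at 15.625, 62.5 or 250 g/ha in 50:50 acetone/water containing 0.5% Tween 20, onto 8-day-old potted plants kept in a glasshouse (24/16 °C, 14 h light, 65% humidity).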

[2] = tested on: barnyardgrass (Echinochloa crus-galli); test: Test G Post-Emergence Protocol; conditions: Echinochloa crus-galli, post-emergence, 312 h, read-out: Barnyardgrass damage rating; for pest or weed control at 15.625 g/ha: 15.625 g ai/ha, evaluated after 13 days (100=total damage to plant; 0=no damage to plant); for pest or weed control at 62.5 g/ha: 62.5 g ai/ha; for pest or weed control at 62.5 g/ha / pest or weed control at 250 g/ha: evaluated after 13 days, 100=total damage to plant, 0=no damage to plant; for pest or weed control at 250 g/ha: 250 g ai/ha
Procedure, shortened: as §1

[3] = tested on: redroot pigweed (Amaranthus retroflexus); test: Test G Post-Emergence Protocol; conditions: Amaranthus retroflexus, post-emergence, 312 h, read-out: Pigweed, Redroot damage rating; for pest or weed control at 15.625 g/ha: 15.625 g ai/ha, evaluated after 13 days (100=total damage to plant; 0=no damage to plant); for pest or weed control at 62.5 g/ha: 62.5 g ai/ha; for pest or weed control at 62.5 g/ha / pest or weed control at 250 g/ha: evaluated after 13 days, 100=total damage to plant, 0=no damage to plant; for pest or weed control at 250 g/ha: 250 g ai/ha
Procedure, shortened: as §1

corn (Zea mays) [4] = test: Test G Post-Emergence Protocol; conditions: Zea mays, post-emergence, 312 h, read-out: Corn damage rating; for plant injury at 15.625 g/ha: 15.625 g ai/ha, evaluated after 13 days (100=total damage to plant; 0=no damage to plant); for plant injury at 62.5 g/ha: 62.5 g ai/ha; for plant injury at 62.5 g/ha / plant injury at 250 g/ha: evaluated after 13 days, 100=total damage to plant, 0=no damage to plant; for plant injury at 250 g/ha: 250 g ai/ha
Procedure, shortened: as §1

[5] = tested on: giant foxtail (Setaria faberi); test: Test G Post-Emergence Protocol; conditions: Setaria faberi, post-emergence, 312 h, read-out: Foxtail, Giant damage rating; for pest or weed control at 15.625 g/ha: 15.625 g ai/ha, evaluated after 13 days (100=total damage to plant; 0=no damage to plant); for pest or weed control at 62.5 g/ha: 62.5 g ai/ha; for pest or weed control at 62.5 g/ha / pest or weed control at 250 g/ha: evaluated after 13 days, 100=total damage to plant, 0=no damage to plant; for pest or weed control at 250 g/ha: 250 g ai/ha
Procedure, shortened: as §1

[6] = tested on: velvetleaf (Abutilon theophrasti); test: Test G Post-Emergence Protocol; conditions: Abutilon theophrasti, post-emergence, 312 h, read-out: Velvetleaf damage rating; for pest or weed control at 15.625 g/ha: 15.625 g ai/ha, evaluated after 13 days (100=total damage to plant; 0=no damage to plant); for pest or weed control at 62.5 g/ha: 62.5 g ai/ha; for pest or weed control at 62.5 g/ha / pest or weed control at 250 g/ha: evaluated after 13 days, 100=total damage to plant, 0=no damage to plant; for pest or weed control at 250 g/ha: 250 g ai/ha
Procedure, shortened: as §1

[7] = tested on: ivy-leaved morning glory (Ipomoea hederacea); test: Test G Pre-Emergence Protocol; conditions: Ipomoea, pre-emergence, 312 h, evaluated after 13 days; for pest or weed control at 15.625 g/ha: 15.625 g ai/ha; for pest or weed control at 15.625 g/ha / pest or weed control at 250 g/ha: read-out: Morningglory, Ivy-leaved damage rating (100=total damage to plant; 0=no damage to plant); for pest or weed control at 62.5 g/ha: 62.5 g ai/ha, 100=total damage to plant, 0=no damage to plant, read-out: Morningglory, Ivy-leaved damage rating; for pest or weed control at 250 g/ha: 250 g ai/ha
Procedure, shortened: (§2)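 Visual injury (0–100) at day 13 after a single pre-emergence spray. Rates: 15.625, 62.5, 250 g/ha in acetone–water 50:50 with 0.5% Tween 20. Growth conditions: 24/16° C, 14 h light, 65% humidity.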

[8] = tested on: barnyardgrass (Echinochloa crus-galli); test: Test G Pre-Emergence Protocol; conditions: Echinochloa crus-galli, pre-emergence, 312 h, evaluated after 13 days; for pest or weed control at 15.625 g/ha: 15.625 g ai/ha; for pest or weed control at 15.625 g/ha / pest or weed control at 250 g/ha: read-out: Barnyardgrass damage rating (100=total damage to plant; 0=no damage to plant); for pest or weed control at 62.5 g/ha: 62.5 g ai/ha, 100=total damage to plant, 0=no damage to plant, read-out: Barnyardgrass damage rating; for pest or weed control at 250 g/ha: 250 g ai/ha
Procedure, shortened: as §2

[9] = tested on: redroot pigweed (Amaranthus retroflexus); test: Test G Pre-Emergence Protocol; conditions: Amaranthus retroflexus, pre-emergence, 312 h, evaluated after 13 days; for pest or weed control at 15.625 g/ha: 15.625 g ai/ha; for pest or weed control at 15.625 g/ha / pest or weed control at 250 g/ha: read-out: Pigweed, Redroot damage rating (100=total damage to plant; 0=no damage to plant); for pest or weed control at 62.5 g/ha: 62.5 g ai/ha, 100=total damage to plant, 0=no damage to plant, read-out: Pigweed, Redroot damage rating; for pest or weed control at 250 g/ha: 250 g ai/ha
Procedure, shortened: as §2

corn (Zea mays) [10] = test: Test G Pre-Emergence Protocol; conditions: Zea mays, pre-emergence, 312 h, evaluated after 13 days; for plant injury at 15.625 g/ha: 15.625 g ai/ha; for plant injury at 15.625 g/ha / plant injury at 250 g/ha: read-out: Corn damage rating (100=total damage to plant; 0=no damage to plant); for plant injury at 62.5 g/ha: 62.5 g ai/ha, 100=total damage to plant, 0=no damage to plant, read-out: Corn damage rating; for plant injury at 250 g/ha: 250 g ai/ha
Procedure, shortened: as §2

[11] = tested on: giant foxtail (Setaria faberi); test: Test G Pre-Emergence Protocol; conditions: Setaria faberi, pre-emergence, 312 h, evaluated after 13 days; for pest or weed control at 15.625 g/ha: 15.625 g ai/ha; for pest or weed control at 15.625 g/ha / pest or weed control at 250 g/ha: read-out: Foxtail, Giant damage rating (100=total damage to plant; 0=no damage to plant); for pest or weed control at 62.5 g/ha: 62.5 g ai/ha, 100=total damage to plant, 0=no damage to plant, read-out: Foxtail, Giant damage rating; for pest or weed control at 250 g/ha: 250 g ai/ha
Procedure, shortened: as §2

[12] = tested on: velvetleaf (Abutilon theophrasti); test: Test G Pre-Emergence Protocol; conditions: Abutilon theophrasti, pre-emergence, 312 h, evaluated after 13 days; for pest or weed control at 15.625 g/ha: 15.625 g ai/ha; for pest or weed control at 15.625 g/ha / pest or weed control at 250 g/ha: read-out: Velvetleaf damage rating (100=total damage to plant; 0=no damage to plant); for pest or weed control at 62.5 g/ha: 62.5 g ai/ha, 100=total damage to plant, 0=no damage to plant, read-out: Velvetleaf damage rating; for pest or weed control at 250 g/ha: 250 g ai/ha
Procedure, shortened: as §2

Row | SMILES | pest or weed control at 15.625 g/ha [1] [%] | pest or weed control at 62.5 g/ha [1] [%] | pest or weed control at 250 g/ha [1] [%] | pest or weed control at 15.625 g/ha [2] [%] | pest or weed control at 62.5 g/ha [2] [%] | pest or weed control at 250 g/ha [2] [%] | pest or weed control at 15.625 g/ha [3] [%] | pest or weed control at 62.5 g/ha [3] [%] | pest or weed control at 250 g/ha [3] [%] | plant injury at 15.625 g/ha (corn (Zea mays) [4]) [%] | plant injury at 62.5 g/ha (corn (Zea mays) [4]) [%] | plant injury at 250 g/ha (corn (Zea mays) [4]) [%] | pest or weed control at 15.625 g/ha [5] [%] | pest or weed control at 62.5 g/ha [5] [%] | pest or weed control at 250 g/ha [5] [%] | pest or weed control at 15.625 g/ha [6] [%] | pest or weed control at 62.5 g/ha [6] [%] | pest or weed control at 250 g/ha [6] [%] | pest or weed control at 15.625 g/ha [7] [%] | pest or weed control at 62.5 g/ha [7] [%] | further results
1 | CN1C[C@H](c2ccc(C(F)(F)F)cc2)[C@@H](C(=O)Nc2cccnc2[N+](=O)[O-])C1=O (racemic) [Compound 1824] | 0 | 0 | 10 | 0 | 0 | 10 | 0 | 0 | 20 | 0 | 0 | 20 | 0 | 0 | 10 | 0 | 0 | 70 | 0 | 0 | pest or weed control at 250 g/ha [7]: 0%; pest or weed control at 15.625 g/ha [8]: 0%; pest or weed control at 62.5 g/ha [8]: 0%; pest or weed control at 250 g/ha [8]: 70%; pest or weed control at 15.625 g/ha [9]: 0%; pest or weed control at 62.5 g/ha [9]: 0%; pest or weed control at 250 g/ha [9]: 20%; plant injury at 15.625 g/ha (corn (Zea mays) [10]): 0%; plant injury at 62.5 g/ha (corn (Zea mays) [10]): 0%; plant injury at 250 g/ha (corn (Zea mays) [10]): 0%; pest or weed control at 15.625 g/ha [11]: 0%; pest or weed control at 62.5 g/ha [11]: 10%; pest or weed control at 250 g/ha [11]: 80%; pest or weed control at 15.625 g/ha [12]: 0%; pest or weed control at 62.5 g/ha [12]: 0%; pest or weed control at 250 g/ha [12]: 0%
2 | C=Cc1cc(Oc2ccccc2)cc([C@@H]2CN(C)C(=O)[C@H]2C(=O)Nc2cccc(F)c2F)c1 (racemic) [Compound 1826] | 0 | 20 | 10 | 0 | 10 | 70 | 0 | 0 | 50 | 0 | 20 | 50 | 0 | 40 | 80 | 0 | 0 | 10 | 0 | 0 | pest or weed control at 250 g/ha [7]: 0%; pest or weed control at 15.625 g/ha [8]: 0%; pest or weed control at 62.5 g/ha [8]: 70%; pest or weed control at 250 g/ha [8]: 80%; pest or weed control at 15.625 g/ha [9]: 0%; pest or weed control at 62.5 g/ha [9]: 0%; pest or weed control at 250 g/ha [9]: 20%; plant injury at 15.625 g/ha (corn (Zea mays) [10]): 10%; plant injury at 62.5 g/ha (corn (Zea mays) [10]): 10%; plant injury at 250 g/ha (corn (Zea mays) [10]): 20%; pest or weed control at 15.625 g/ha [11]: 20%; pest or weed control at 62.5 g/ha [11]: 80%; pest or weed control at 250 g/ha [11]: 90%; pest or weed control at 15.625 g/ha [12]: 0%; pest or weed control at 62.5 g/ha [12]: 0%; pest or weed control at 250 g/ha [12]: 0%
3 | CN1C[C@H](c2ccc(C(F)(F)F)cc2)[C@@H](C(=O)Nc2ccc3ncccc3n2)C1=O (racemic) [Compound 1833] | 0 | 0 | 0 | 0 | 0 | 0 | 0 | 0 | 0 | 0 | 0 | 0 | 0 | 0 | 0 | 0 | 0 | 0 | 0 | 0 | pest or weed control at 250 g/ha [7]: 0%; pest or weed control at 15.625 g/ha [8]: 0%; pest or weed control at 62.5 g/ha [8]: 0%; pest or weed control at 250 g/ha [8]: 0%; pest or weed control at 15.625 g/ha [9]: 0%; pest or weed control at 62.5 g/ha [9]: 0%; pest or weed control at 250 g/ha [9]: 0%; plant injury at 15.625 g/ha (corn (Zea mays) [10]): 0%; plant injury at 62.5 g/ha (corn (Zea mays) [10]): 0%; plant injury at 250 g/ha (corn (Zea mays) [10]): 0%; pest or weed control at 15.625 g/ha [11]: 0%; pest or weed control at 62.5 g/ha [11]: 0%; pest or weed control at 250 g/ha [11]: 0%; pest or weed control at 15.625 g/ha [12]: 0%; pest or weed control at 62.5 g/ha [12]: 0%; pest or weed control at 250 g/ha [12]: 0%
